Laboratory results from publication PMC10980839 (Drug Design, Development and Therapy, 2024).
“Also recorded” adds a separate entry of the source.

Assays:
[1] = tested on: rat liver microsomes (RLMs); assay: Inhibitory effect of baohuoside I on tofacitinib metabolism in RLMs; format: in vitro ADME; conditions: Lineweaver-Burk plot
[2] = tested on: rat liver microsomes (RLMs); conditions: tofacitinib 1-400 μM, 0.5 mg/mL RLMs, 1 mM NADPH, 37 °C, 30 min
[3] = cited from earlier work

| Km [2] [µM] | Compound | inhibition mechanism on tofacitinib metabolism [1] | Vmax [2] [ng/min/mg] | plasma protein binding [3] |
| --- | --- | --- | --- | --- |
| – | COc1ccc(-c2oc3c(CC=C(C)C)c(O)cc(O)c3c(=O)c2O[C@@H]2O[C@@H](C)[C@H](O)[C@@H](O)[C@H]2O)cc1 [Baohuoside I] | a mixture of non-competitive and competitive inhibition; also recorded: a combination of non-competitive and competitive inhibition | – | – |
| 39.9 | C[C@@H]1CCN(C(=O)CC#N)C[C@@H]1N(C)c1ncnc2[nH]ccc12 [Tofacitinib] | – | 4.2824 | about 40% |
